The source of these data is US10899759B2, “Positive allosteric modulators of the muscarinic acetylcholine receptor M1” (Vanderbilt University, priority 2016, dated 2021).

The target in the experiment is T1, human mAChR M1 (Homo sapiens, UniProt P11229).
T1 construct: host or cells: CHO-K1
T1 sequence (P11229 1-460): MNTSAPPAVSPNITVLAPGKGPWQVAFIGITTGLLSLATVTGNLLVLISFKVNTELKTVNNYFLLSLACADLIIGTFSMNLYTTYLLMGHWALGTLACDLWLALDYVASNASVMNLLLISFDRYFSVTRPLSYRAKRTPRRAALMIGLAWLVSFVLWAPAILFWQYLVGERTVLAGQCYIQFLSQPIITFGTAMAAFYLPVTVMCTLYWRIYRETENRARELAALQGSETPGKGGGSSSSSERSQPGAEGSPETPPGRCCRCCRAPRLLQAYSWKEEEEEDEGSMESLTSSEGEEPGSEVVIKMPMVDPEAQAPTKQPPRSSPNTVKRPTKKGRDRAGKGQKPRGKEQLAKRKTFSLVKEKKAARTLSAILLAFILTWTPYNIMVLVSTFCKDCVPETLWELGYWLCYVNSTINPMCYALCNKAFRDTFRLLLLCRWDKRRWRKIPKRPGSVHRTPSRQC
The experiment is described as follows: mAChR M1 cell-based functional assay (calcium mobilization, Fluo-4, FDSS). Particulars: CHO-K1 cells stably expressing hM1; for Emax: EC20 acetylcholine response, read-out: Human M1 Emax; for EC50: positive allosteric modulator activity as increase in the EC20 acetylcholine response. On the procedure: Chinese hamster ovary (CHO-K1) cells stably expressing rat (r)M1 were purchased from the American Type Culture Collection and cultured according to their indicated protocol. […] To make stable rM2, hM2, rM3, hM4, and rM4 cell lines for use in calcium mobilization assays, these cells also were stably transfected with a chimeric G-protein (Gqi5) (provided by B. R. Conklin, University of California, San Francisco) using Lipofectamine 2000. rM1, hM1, rM3, hM3, rM5, and hM5 cells were grown in Ham's F-12 medium containing 10% heat-inactivated fetal bovine serum (FBS), 20 mM HEPES, and 50 μg/mL G418 sulfate. rM2-Gqi5, hM2-Gqi5, and hM4-Gqi5 cells were grown in the same medium also containing 500 μg/mL Hygromycin B. Stable rM4-Gqi5 cells were grown in DMEM containing 10% heat-inactivated FBS, 20 mM HEPES, 400 μg/mL G418 sulfate, and 500 μg/mL Hygromycin B.
For high throughput measurement of agonist-evoked increases in intracellular calcium, CHO-K1 cells stably expressing muscarinic receptors were plated in growth medium lacking G418 and hygromycin at 15,000 cells/20 μL/well in Greiner 384-well black-walled, tissue culture (TC)-treated, clear-bottom plates (VWR). Cells were incubated overnight at 37° C. and 5% CO2. […] Compound master plates were formatted in an 11 point CRC format (1:3 dilutions) in 100% DMSO with a starting concentration of 10 mM using the BRAVO liquid handler (Agilent). Test compound CRCs were then transferred to daughter plates (240 nL) using the Echo acoustic plate reformatter (Labcyte, Sunnyvale, Calif.) and then diluted into assay buffer (40 μL) to a 2× stock using a Thermo Fisher Combi (Thermo Fisher Scientific, Waltham, Mass.).
Calcium flux was measured using the Functional Drug Screening System (FDSS) 6000 (Hamamatsu Corporation, Tokyo, Japan) as an increase in the fluorescent static ratio. Compounds were applied to cells (20 μL, 2×) using the automated system of the FDSS 6000 at 4 s into the 300 s protocol and the data were collected at 1 Hz. […] Agonist activity was analyzed as a concentration-dependent increase in calcium mobilization upon compound addition. Positive allosteric modulator activity was analyzed as a concentration-dependent increase in the EC20 acetylcholine response. Antagonist activity was analyzed as a concentration-dependent decrease in the EC80 acetylcholine response. Concentration-response curves were generated using a four-parameter logistical equation in XLfit curve fitting software (IDBS, Bridgewater, N.J.) for Excel (Microsoft, Redmond, Wash.) or Prism (GraphPad Software, Inc., San Diego, Calif.).
The compound numbers correspond to the compound numbers used in Table 1.
(A change in cytosolic calcium serves as a functional read-out for many receptors and channels.)

Consider `Cn1ccc2c(Cc3ccc(-c4cscn4)cc3)cc(C(=O)N[C@H]3CCCC[C@@H]3O)nc21` [Compound 22, N-[(1S,2S)-2-hydroxycyclohexyl]-1-methyl-4-[(4-thiazol-4-ylphenyl)methyl]pyrrolo[2,3-b]pyridine-6-carboxamide], for which the Emax came out at 63.3% and the EC50 came to 40 nM.

Consider `Cn1ccc2c(Cc3ccc(-c4cscn4)cc3)cc(C(=O)NC3CC4(COC4)C3)nc21` [Compound 23, 1-methyl-N-(2-oxaspiro[3.3]heptan-6-yl)-4-[(4-thiazol-4-ylphenyl)methyl]pyrrolo[2,3-b]pyridine-6-carboxamide], for which the Emax was found to be 75.4% and the EC50 amounted to 140 nM.

Regarding `CC1CC(NC(=O)c2cc(Cc3ccc(-c4cscn4)cc3)c3ccn(C)c3n2)CC(C)O1` (stereo not shown) [Compound 24, N-(2,6-dimethyltetrahydropyran-4-yl)-1-methyl-4-[(4-thiazol-4-ylphenyl)methyl]pyrrolo[2,3-b]pyridine-6-carboxamide], the maximal effect (Emax) was found to be 65.3% and the EC50 was 1110 nM.

In the case of `Cn1ccc2c(Cc3ccc(-c4cscn4)cc3)cc(C(=O)NC3CCOC(C)(C)C3)nc21` (stereo not shown) [Compound 25, N-(2,2-dimethyltetrahydropyran-4-yl)-1-methyl-4-[(4-thiazol-4-ylphenyl)methyl]pyrrolo[2,3-b]pyridine-6-carboxamide], the Emax worked out at 76.7% and the EC50 stood at 670 nM.

Turning to `Cn1ccc2c(Cc3ccc(-c4cscn4)cc3)cc(C(=O)NCC3CCOCC3)nc21` [Compound 26, 1-methyl-N-(tetrahydropyran-4-ylmethyl)-4-[(4-thiazol-4-ylphenyl)methyl]pyrrolo[2,3-b]pyridine-6-carboxamide], the Emax is 52.6% and the EC50 was found to be 410 nM.

In the case of `Cn1ncc2c(Cc3ccc(-c4cscn4)cc3)cc(C(=O)N[C@H]3CCOC[C@@H]3O)nc21` [Compound 27, N-[(3R,4S)-3-hydroxytetrahydropyran-4-yl]-1-methyl-4-[(4-thiazol-4-ylphenyl)methyl]pyrazolo[3,4-b]pyridine-6-carboxamide], the Emax was 75.1% and the EC50 was found to be 70 nM.

Consider `Cn1ncc2c(Cc3ccc(-c4cscn4)cc3)cc(C(=O)N[C@H]3CCCC[C@@H]3O)nc21` [Compound 28, N-[(1S,2S)-2-hydroxycyclohexyl]-1-methyl-4-[(4-thiazol-4-ylphenyl)methyl]pyrazolo[3,4-b]pyridine-6-carboxamide], for which the Emax is 76.4% and the concentration giving a half-maximal response (EC50) turned out to be 130 nM.

With `Cn1ncc2c(Cc3ccc(-c4cscn4)cc3)cc(C(=O)NCC3CCOCC3)nc21` [Compound 29, 1-methyl-N-(tetrahydropyran-4-ylmethyl)-4-[(4-thiazol-4-ylphenyl)methyl]pyrazolo[3,4-b]pyridine-6-carboxamide], the Emax is 48.1% and the EC50 worked out at 1610 nM.

`Cn1ncc2c(Cc3ccc(-c4cscn4)cc3)cc(C(=O)NC3CC4(COC4)C3)nc21` [Compound 30, 1-methyl-N-(2-oxaspiro[3.3]heptan-6-yl)-4-[(4-thiazol-4-ylphenyl)methyl]pyrazolo[3,4-b]pyridine-6-carboxamide]: the Emax was determined as 77.8% and the EC50 stood at 660 nM.

For `Cn1ncc2c(Cc3ccc(-c4cscn4)cc3)cc(C(=O)N[C@H]3CC[C@@H]3O)nc21` [Compound 31, N-[(1S,2S)-2-hydroxycyclobutyl]-1-methyl-4-[(4-thiazol-4-ylphenyl)methyl]pyrazolo[3,4-b]pyridine-6-carboxamide], the Emax was 79.7% and the EC50 amounted to 3830 nM.

`Cn1ccc2c(Cc3ccc(-c4cscn4)cc3)cc(C(=O)N[C@@H]3CCCOC3)nc21` [Compound 32, 1-methyl-N-[(3R)-tetrahydropyran-3-yl]-4-[(4-thiazol-4-ylphenyl)methyl]pyrrolo[2,3-b]pyridine-6-carboxamide]: the maximum response (Emax) worked out at 39.7% and the EC50 was 380 nM.

Broadly, the Emax is the greatest response seen or fitted, relative to the assay's reference. What is called EC50 is the concentration giving half of the maximal effect.
